Results: PubChem BioAssay (NCI)
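Results reflect a 48-hour exposure of cells in 96-well plates to compound at five concentrations. Abbreviation: GI50, concentration required for 50% inhibition of growth. TGI is the concentration that stops growth completely.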

Tests used:
Test in all cases: inhibition of tumour cell growth, NCI panel, 48 h
SK-MEL-5 melanoma = system: SK-MEL-5 melanoma
T-47D breast = system: T-47D breast
MDA-MB-435 = system: MDA-MB-435
UO-31 renal = system: UO-31 renal
HCC-2998 colon = system: HCC-2998 colon
COLO 205 colon = system: COLO 205 colon
OVCAR-4 ovarian = system: OVCAR-4 ovarian
OVCAR-5 ovarian = system: OVCAR-5 ovarian
UACC-62 melanoma = system: UACC-62 melanoma
A498 renal = system: A498 renal

SMILES	GI50 (SK-MEL-5 melanoma) [µM]	TGI (SK-MEL-5 melanoma) [µM]	GI50 (T-47D breast) [µM]	TGI (T-47D breast) [µM]	GI50 (MDA-MB-435) [µM]	TGI (MDA-MB-435) [µM]	GI50 (UO-31 renal) [µM]	TGI (UO-31 renal) [µM]	GI50 (HCC-2998 colon) [µM]	TGI (HCC-2998 colon) [µM]	GI50 (COLO 205 colon) [µM]	TGI (COLO 205 colon) [µM]	GI50 (OVCAR-4 ovarian) [µM]	TGI (OVCAR-4 ovarian) [µM]	GI50 (OVCAR-5 ovarian) [µM]	TGI (OVCAR-5 ovarian) [µM]	GI50 (UACC-62 melanoma) [µM]	TGI (UACC-62 melanoma) [µM]	GI50 (A498 renal) [µM]	TGI (A498 renal) [µM]
COc1cc2c(cc1C)NC(=O)/C2=C/c1c(C)nc2sc(C)cn12	24.4	64.7	64.4	> 100	32.4	> 100	86.6	> 100	31.7	> 100	73.6	> 100	> 100	> 100	> 100	> 100	38.9	> 100		
CCC1=C[C@H]2CN(CCc3c([nH]c4ccccc34)[C@@](C(=O)OC)(c3cc4c(cc3OC)N(C)[C@H]3[C@@](O)(C(=O)OC)[C@H](OC(C)=O)[C@]5(CC)[C@@H]6C[C@@H]6CN6CC[C@]43[C@@H]65)C2)C1	0.0143	0.586			0.00603	0.0211	0.175	5.02	0.084	3.07			0.375	> 25	0.126	13.1	0.0211	5.12	0.035	0.183
O=C(/C=C/c1ccc2c(c1)OCO2)c1ccccc(=O)c1O		23		64.6		> 100		> 100				20.2		> 100				29.2		> 100
Cn1c(C2CC(C)(C)c3c2c2ccccc2n3C)cc2ccccc21 (stereo not drawn)		> 304								> 304		> 304				> 304		> 304		
O=C(Nc1ncc(Cc2ccc(Cl)cc2)s1)c1ccc2c(c1)OCCO2	0.0539	1.42			0.0197	0.0459	0.0834	> 100	0.223	20.3	0.0492	1.19	0.547	> 52.1	0.266	> 100	0.0543	> 100	0.0187	0.0809
COc1cc([C@@H]2c3cc4c(cc3[C@@H](NC(=O)c3ccc([N+](=O)[O-])cc3)C3COC(=O)[C@@H]32)OCO4)cc(OC)c1O (stereo partly drawn)		3.53						10.4		3.44		10.4		> 100		76.2		2.04		3.9
N#Cc1ccccc1/C=N/O		> 100						> 100		> 100		> 74.9		> 100		> 100		> 100		> 100
Cc1cc2c(=O)cc(-c3ccc(C(=O)O)cc3)oc2c(C(=O)O)c1C		> 100						> 100		> 100		> 100		> 100		> 100		> 100		
O=C1CC23CC(=O)CC2(C1)c1ccccc1C3=O (stereo not drawn)								> 100		> 100		> 100				> 100		> 100		
C[C@H]1[C@H](C)CC[C@]2(C(=O)O)CC[C@]3(C)C(=CC[C@@H]4[C@@]5(C)CC[C@H](OC(=O)/C=C\c6ccc(O)cc6)C(C)(C)[C@@H]5CC[C@]43C)[C@H]12	3.85	14.3			4.24	42.4	13.6	> 100	2.92	14.1	3.85	14.8	10.6	28.8	12.3	27	10.9	22.8	15	29.2
O=CN/C=C/c1ccccc1O		> 100						> 100		> 100		> 100		> 100		> 100		> 100		> 100
O=C(Cc1nc2ccccc2s1)NC12CC3CC(CC(C3)C1)C2								> 100		> 100				> 100				> 100		> 100
C=C1CCC2C(C)(CO)C(O)CCC2(C)C1CC(O)C1=CCOC1=O (stereo not drawn)		> 100						> 100		40.8		> 100		> 100		> 100		> 100		> 100
COc1ccc2c(c1)N(CCC1CCCCN1C)c1ccccc1S2 (stereo not drawn)		24.8		26.3		20.6						30.9		24		31.2		25.2		23.8
Cc1ccc(C2CC(c3cccc(Nc4ccncc4)c3)=NN2c2ccc(Cl)cc2)cc1 (stereo not drawn)	1.76	3.16			1.6	2.97	1.35	2.63	1.69	3.14	1.73	3.6	1.69	3.35	1.61	2.99	1.72	3.14	1.38	2.7
FC(F)(F)c1ccccc1C=NC12CC3CC(CC(C3)C1)C2		> 100						12.1		> 100		> 100		> 100		> 100				> 100
COc1ccc2c(c1)CC[C@@H]1[C@@H]2CC[C@]2(C)c3c(cc(C(=O)c4ccccc4)c4sccc34)C[C@@H]12	> 100	> 100			> 100	> 100	> 100	> 100	> 100	> 100	> 100	> 100	76.8	> 100	60.7	> 100	> 100	> 100	> 100	> 100
C#CCOc1c(OC)cc(C(=O)/C(C)=C/c2cccc(N=[N+]=[N-])c2)cc1OC	0.288	54.3					0.751	> 100	0.464	> 100	0.3	2.98	1.19	> 100	1.23	> 100	0.253	> 100	0.151	0.714
COC(=O)c1c/c(=N\NC(=O)CC(=O)Nc2ccc(C)cc2)c2ccccc2o1		> 100						> 100				> 100		> 100		> 100		> 100		> 100
Clc1ccc(CCn2cncn2)c(Cl)c1		> 100						> 100		> 100		> 100		> 100		> 100		> 100		
